Reference: the NIST ThermoML archive (doi:10.1021/acs.jced.9b00844)
Numbers after ± are expanded uncertainties.

Key:
[1] = Molar enthalpy of transition or fusion; conditions: Crystal; DSC
[2] = Crystal; DSC

Molar enthalpy of transition or fusion [1]: 2.78 ± 0.179 kcal/mol | Triple point temperature [2]: 446.85 ± 1.2 K
Compound: N=C(N)NC(=N)NCCc1ccccc1 [N-(2-phenylethyl)imidodicarbonimidic diamide]
